The text below walks through data of patent EP4624470A1, “YOHIMBINE DERIVATIVE, AND PREPARATION METHOD THEREFOR AND PHARMACEUTICAL COMPOSITION AND USE THEREOF” (Shanghai Institute of Materia Medica, Chinese Academy of …, priority 2022, dated 2024).

One series concerns the target T1, α2A-AR (Homo sapiens, UniProt P08913).
T1 construct: expressed in transfected cells; stably expressing α2A-AR/Gα16
T1 sequence (P08913 1-465): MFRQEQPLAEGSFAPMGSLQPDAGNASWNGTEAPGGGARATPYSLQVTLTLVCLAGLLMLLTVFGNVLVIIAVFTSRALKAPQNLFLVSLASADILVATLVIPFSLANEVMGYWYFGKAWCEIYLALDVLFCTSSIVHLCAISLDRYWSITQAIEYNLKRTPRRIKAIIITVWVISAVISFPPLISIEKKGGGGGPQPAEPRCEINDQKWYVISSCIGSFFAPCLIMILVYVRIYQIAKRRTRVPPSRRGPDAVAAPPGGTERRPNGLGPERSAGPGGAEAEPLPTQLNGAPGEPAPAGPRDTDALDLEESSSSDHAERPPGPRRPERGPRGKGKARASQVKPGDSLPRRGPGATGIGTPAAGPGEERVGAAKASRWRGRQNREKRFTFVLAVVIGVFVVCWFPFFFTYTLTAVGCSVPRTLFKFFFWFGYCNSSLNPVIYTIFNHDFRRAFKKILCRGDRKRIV
Put plainly: α2A-AR antagonist assay (calcium flux, Fluo-4, FlexStation II). It is filed as cell-based. Conditions: antagonistic activity against agonist UK14304 in cells stably expressing α2A-AR/Ga16. From the text:
By establishing a cell line co-transfected with the target receptor and Ga16, the receptor can be activated to cause the activation of Gα16 protein, which in turn activates phospholipase C (PLC) to produce IP3 and DAG. IP3 can bind to the IP3 receptors on the endoplasmic reticulum and mitochondria in the cell, thereby causing the release of intracellular calcium. Therefore, measuring the changes in intracellular calcium can be used as a method to detect the activation state of the target receptor. Fluo-4/AM is a calcium fluorescent probe indicator used to measure calcium ions. As a non-polar lipid-soluble compound, after entering the cell, the AM group dissociates under the action of cell lipases and releases Fluo-4; since Fluo-4 is a polar molecule that is not easy to pass through the lipid bilayer membrane, it can keep in the cell for a long time. Finally, the level of Ga protein activation can be reflected by measuring the excited fluorescence intensity.
Before the test, the test compound was dissolved in DMSO to prepare a stock solution, which was diluted with culture medium to the required concentration when used.
In general terms: Calcium flux is commonly read through the fluorescence of an indicator in the cells.

Series [1] in a line: Tissue distribution test in mice. The note with it: gavage 10 mg/kg. Format: in vivo. The procedure:
Mice were fasted for more than 12 h and had free access to water. Table 3 Experimental Scheme for tissue distribution of Compound C27 in mice
Mice were fasted for more than 12 h and had free access to water.
• (1) Tissue distribution test in mice: The animals in each group were anesthetized and killed 2 h after administration. The brain, pancreas, heart, liver, and kidney tissues were collected by dissection, washed with physiological saline, and stored in a -20 °C refrigerator for testing. At the same time, 0.3 mL of whole blood was collected and placed in an EDTA-K2 anticoagulant tube. The blood was separated by centrifugation at 11,000 rpm for 5 min and stored in a -20 °C refrigerator for testing.
The concentration of unchanged drug in plasma and tissues was determined.
(2) Tissue distribution test of compound C27 in mice: At corresponding time points (0.25, 2 and 8 h) after gavage administration, mice were bled to death through the abdominal aorta. Brain, heart, liver, lung, pancreas and kidney tissues were immediately collected by dissection, and part of the plasma was collected. The operation was carried out in an ice water bath.
Centrifugation conditions: 11000 rpm for 5 min to separate plasma (about 200 µL).

The mark [2] stands for this setting: relative ratio of tissue distribution concentration to blood concentration.

Take `O[C@H]1CC[C@H]2CN3CCc4c([nH]c5ccccc45)[C@@H]3C[C@@H]2[C@H]1c1nc(Cc2ccccc2)no1` [Compound C1]: on α2A-AR, the half-maximal inhibitory concentration (IC50) – broadly, the concentration needed to halve the response being measured – is under 0.1 µM. Moreover, the “brain tissue distribution compared with yohimbine” value in series [1] (setting [2]) was “lower brain tissue distribution than yohimbine”.

As to `O[C@H]1CC[C@H]2CN3CCc4c([nH]c5ccccc45)[C@@H]3C[C@@H]2[C@H]1c1nc(-c2ccncc2)no1` [Compound C24], the 50% inhibitory concentration (IC50) on α2A-AR is 0.5 to 2 µM.

On to `O[C@H]1CC[C@H]2CN3CCc4c([nH]c5ccccc45)[C@@H]3C[C@@H]2[C@H]1c1nc(Cc2ccc(Cl)c(Cl)c2)no1` [Compound C13], for which the IC50 at α2A-AR is 0.5 to 2 µM. In addition, in series [1] (setting [2]), the “brain tissue distribution compared with yohimbine” value is on record as “lower brain tissue distribution than yohimbine”.

For `COC(=O)c1ccc(Cc2noc([C@@H]3[C@H]4C[C@H]5c6[nH]c7ccccc7c6CCN5C[C@@H]4CC[C@@H]3O)n2)cc1` [Compound C29], the IC50 on α2A-AR lay in the range of 0.1 to 0.3 µM.

With `COc1cccc(Cc2noc([C@@H]3[C@H]4C[C@H]5c6[nH]c7ccccc7c6CCN5C[C@@H]4CC[C@@H]3O)n2)c1` [Compound C5], the IC50 on α2A-AR was in the range of 0.1 to 0.3 µM.

On to `O=C(O)c1ccc(Cc2noc([C@@H]3[C@H]4C[C@H]5c6[nH]c7ccccc7c6CCN5C[C@@H]4CC[C@@H]3O)n2)cc1` [Compound C30], for which the IC50 at α2A-AR lay within 0.3 to 0.5 µM.

Turning to `COc1ccc(Cc2noc([C@@H]3[C@H]4C[C@H]5c6[nH]c7ccccc7c6CCN5C[C@@H]4CC[C@@H]3O)n2)cc1` [Compound C6], on α2A-AR, the IC50 was under 0.1 µM. Moreover, in series [1] (setting [2]), the “brain tissue distribution compared with yohimbine” value is “lower brain tissue distribution than yohimbine”.

As for `O[C@H]1CC[C@H]2CN3CCc4c([nH]c5ccccc45)[C@@H]3C[C@@H]2[C@H]1c1nc(Cc2cccc(OC(F)(F)F)c2)no1` [Compound C32], on α2A-AR, the IC50 was under 0.1 µM.

Regarding `O[C@H]1CC[C@H]2CN3CCc4c([nH]c5ccccc45)[C@@H]3C[C@@H]2[C@H]1c1nc(Cc2cccc(F)c2)no1` [Compound C8], at α2A-AR, the IC50 lay in the range of 0.3 to 0.5 µM.

As for `O[C@H]1CC[C@H]2CN3CCc4c([nH]c5ccccc45)[C@@H]3C[C@@H]2[C@H]1c1nc(Cc2cccc(Cl)c2)no1` [Compound C11], the IC50 at α2A-AR lay within 0.5 to 2 µM.

For `O[C@H]1CC[C@H]2CN3CCc4c([nH]c5ccccc45)[C@@H]3C[C@@H]2[C@H]1c1nc(Cc2ccccc2Br)no1` [Compound C14], the IC50 at α2A-AR was under 0.1 µM.

As for `O[C@H]1CC[C@H]2CN3CCc4c([nH]c5ccccc45)[C@@H]3C[C@@H]2[C@H]1c1nc(CCc2ccccc2)no1` [Compound C3], the IC50 on α2A-AR was 0.1 to 0.3 µM.

Take `Cc1noc([C@@H]2[C@H]3C[C@H]4c5[nH]c6ccccc6c5CCN4C[C@@H]3CC[C@@H]2O)n1` [Compound C26]: on α2A-AR, the IC50 was 0.1 to 0.3 µM.

As for `CC(c1ccccc1)c1noc([C@@H]2[C@H]3C[C@H]4c5[nH]c6ccccc6c5CCN4C[C@@H]3CC[C@@H]2O)n1` (some centres unmarked) [Compound C2], the IC50 at α2A-AR is 0.3 to 0.5 µM.

Turning to `O[C@H]1CC[C@H]2CN3CCc4c([nH]c5ccccc45)[C@@H]3C[C@@H]2[C@H]1c1nc(Cc2ccc(F)cc2)no1` [Compound C9], on α2A-AR, the IC50 fell in the range of 0.5 to 2 µM.

On to `CN(C)S(=O)(=O)c1ccc(Cc2noc([C@@H]3[C@H]4C[C@H]5c6[nH]c7ccccc7c6CCN5C[C@@H]4CC[C@@H]3O)n2)cc1` [Compound C28], for which the IC50 at α2A-AR was under 0.1 µM.

Regarding `CN(C)C(=O)c1ccc(Cc2noc([C@@H]3[C@H]4C[C@H]5c6[nH]c7ccccc7c6CCN5C[C@@H]4CC[C@@H]3O)n2)cc1` [Compound C35], the IC50 at α2A-AR lay within 0.1 to 0.3 µM.

On to `CN(C)c1cccc(Cc2noc([C@@H]3[C@H]4C[C@H]5c6[nH]c7ccccc7c6CCN5C[C@@H]4CC[C@@H]3O)n2)c1` [Compound C34], for which the IC50 on α2A-AR was in the range of 0.1 to 0.3 µM.

Take `O[C@H]1CC[C@H]2CN3CCc4c([nH]c5ccccc45)[C@@H]3C[C@@H]2[C@H]1c1nc(Cc2ccc(Br)cc2)no1` [Compound C16]: the IC50 at α2A-AR was 0.5 to 2 µM.

`NC(=O)c1ccc(Cc2noc([C@@H]3[C@H]4C[C@H]5c6[nH]c7ccccc7c6CCN5C[C@@H]4CC[C@@H]3O)n2)cc1` [Compound C27]: on α2A-AR, the IC50 was under 0.1 µM. Moreover, in series [1], the pancreatic distribution result is recorded as “pancreatic distribution characteristics comparable to those of compound C19”. Also, the plasma exposure result in series [1] (compared with yohimbine) is listed as “equivalent to that of yohimbine”. In addition, in series [1] (setting [2]), the “brain tissue distribution compared with yohimbine” value was “lower brain tissue distribution than yohimbine”; the “brain tissue distribution, times lower than that of yohimbine” value is “about two hundred and seventy times lower”.

Regarding `O[C@H]1CC[C@H]2CN3CCc4c([nH]c5ccccc45)[C@@H]3C[C@@H]2[C@H]1c1nc(CN2CCOCC2)no1` [Compound C20], the half-inhibitory concentration (IC50) on α2A-AR lay within 0.1 to 0.3 µM.

`COc1ccccc1Cc1noc([C@@H]2[C@H]3C[C@H]4c5[nH]c6ccccc6c5CCN4C[C@@H]3CC[C@@H]2O)n1` [Compound C4]: on α2A-AR, the IC50 lay within 0.5 to 2 µM.

For `O[C@H]1CC[C@H]2CN3CCc4c([nH]c5ccccc45)[C@@H]3C[C@@H]2[C@H]1c1nc(-c2ccccc2)no1` [Compound C23], at α2A-AR, the IC50 lay within 0.3 to 0.5 µM.

For the molecule `O[C@H]1CC[C@H]2CN3CCc4c([nH]c5ccccc45)[C@@H]3C[C@@H]2[C@H]1c1nc(Cc2nc3ccccc3o2)no1` [Compound C31], the IC50 on α2A-AR lay within 0.3 to 0.5 µM.

For the molecule `O[C@H]1CC[C@H]2CN3CCc4c([nH]c5ccccc45)[C@@H]3C[C@@H]2[C@H]1c1nc(Cc2cccc(Br)c2)no1` [Compound C15], on α2A-AR, the IC50 was under 0.1 µM.

Take `COCc1noc([C@@H]2[C@H]3C[C@H]4c5[nH]c6ccccc6c5CCN4C[C@@H]3CC[C@@H]2O)n1` [Compound C22]: the IC50 on α2A-AR lay within 0.1 to 0.3 µM.

Regarding `O[C@H]1CC[C@H]2CN3CCc4c([nH]c5ccccc45)[C@@H]3C[C@@H]2[C@H]1c1nc(Cc2ccccc2Cl)no1` [Compound C10], at α2A-AR, the IC50 lay within 0.5 to 2 µM.

Turning to `O[C@H]1CC[C@H]2CN3CCc4c([nH]c5ccccc45)[C@@H]3C[C@@H]2[C@H]1c1nc(C2CCCCC2)no1` [Compound C25], at α2A-AR, the IC50 is 0.3 to 0.5 µM.

For `N#Cc1cccc(Cc2noc([C@@H]3[C@H]4C[C@H]5c6[nH]c7ccccc7c6CCN5C[C@@H]4CC[C@@H]3O)n2)c1` [Compound C18], the IC50 on α2A-AR was under 0.1 µM.

Take `O[C@H]1CC[C@H]2CN3CCc4c([nH]c5ccccc45)[C@@H]3C[C@@H]2[C@H]1c1nc(Cc2c(Cl)cccc2Cl)no1` [Compound C12]: the IC50 on α2A-AR was in the range of 0.1 to 0.3 µM.

As to `N#Cc1ccccc1Cc1noc([C@@H]2[C@H]3C[C@H]4c5[nH]c6ccccc6c5CCN4C[C@@H]3CC[C@@H]2O)n1` [Compound C17], the IC50 on α2A-AR lay within 0.1 to 0.3 µM.

`O[C@H]1CC[C@H]2CN3CCc4c([nH]c5ccccc45)[C@@H]3C[C@@H]2[C@H]1c1nc(Cc2cccc(C(F)(F)F)c2)no1` [Compound C33]: the IC50 on α2A-AR lay within 0.1 to 0.3 µM.

Consider `O[C@H]1CC[C@H]2CN3CCc4c([nH]c5ccccc45)[C@@H]3C[C@@H]2[C@H]1c1nc(CC2CC2)no1` [Compound C21], for which, at α2A-AR, the IC50 is 0.5 to 2 µM.

Turning to `O[C@H]1CC[C@H]2CN3CCc4c([nH]c5ccccc45)[C@@H]3C[C@@H]2[C@H]1c1nc(Cc2ccccc2F)no1` [Compound C7], the IC50 at α2A-AR was 0.5 to 2 µM.
